Data set [1] is described as follows: CellTiter-Glo luminescent cell viability (cytotoxicity) assay on hepatocytes. It counts as cell-based, human. To be noted: human, Liver cells, hepatocytes (HepaRG), 24 h, vs DMSO vehicle. On the procedure:
(§1) The cytotoxicity of prepared benzoxazoles (7a–j) and intermediates (6a–j and 9) were measured by applying the CellTiter-Glo® luminescent cell proliferation assay (G755A, Promega, Madison, WI, USA). This method permits the determination of viable cells numbers in the culture based on quantitation of the ATP present, which denotes the presence of metabolically active cells. In vitro cytotoxicity analysis was overall performed following the protocol as described in “Guidance Document on Using in Vitro Data to Estimate in Vivo Starting Doses for Acute Toxicity Based on Recommendations” [18]. Human A-549 cells are human lung cancer epithelial cells, which were chosen as the tumor model, whereas the HepaRG™ cell line is a classic hepatic cell line that retains many characteristics of primary human hepatocytes. HepaRG™ cells are terminally differentiated.
(§2) Human cell cultures: Hepatocytes (HepaRG^TM cells) were obtained from Life Technologies, and were cultivated in William’s E Medium (Gibco, Life Technologies, Waltham, MA, USA) and supplemented with 1x GlutaMAX™ plus 1x HepaRG^TM General Purpose Medium Supplement in 25-cm^2 or 75-cm^2 flasks (TPP, Trasadingen, Switzerland) at 37 °C and 5% CO2. Lung cancer epithelial cells A-549 were propagated in Epilife Medium (Gibco, Life Technologies; MEPICF) and combined with CaCl2 and 1x-growth-supplement containing penicillin and streptomycin (Gibco, Life Technologies). For sub-culturing, cells were split at a ratio of 1:4 to 1:8. For cryopreservation, cells were frozen in 10% DMSO in liquid nitrogen.
(§3) Human cytotoxicity assay: Human hepatocytes or human lung carcinoma cells were seeded into sterile black clear-bottomed polystyrene Corning® CellBind® 96-well plates (Munich, Germany) at a density of 20,000 cells/well after calculating cell numbers from trypsinized samples in a classical Neubauer Improved hemocytometer (VWR, Munich, Germany). The cells were grown for 24 h at 37 °C in a 5% CO2 atmosphere in Epilife medium (keratinocytes) or William′s E medium (hepatocytes). After a 24-h recovery period, media were removed from the wells by aspiration. The cells were then immediately exposed to the respective test compounds or reference antibiotics (prepared in advance in 100 µL of the same media) for 24 h 37 °C with 5% CO2. The concentration tested ranged from 0.1 µM to 500 µM (0.1 µM, 1 µM, 10 µM, 50 µM, 100 µM, 250 µM, and 500 µM) and was formulated as a 100× concentrated stock each, resulting in a final constant DMSO concentration of 1% per 100-µL sample volume. Test series were each performed in triplicate, and additionally included a vehicle reference (DMSO only) plus another internal control for evaluating overall assay performance. Additionally, cells were visually examined under a light microscope for any morphological abnormalities relative to the untreated cells. Subsequently, cell viability, as an indicator of potential cytotoxicity, was measured by applying the CellTiter-Glo® luminescent cell proliferation assay (G755A, Promega, Madison, WI, USA). This method permits the determination of the number of viable cells in culture based on quantitation of the ATP present, which denotes the presence of metabolically active cells. To this end, 100 µL (equal to the volume of culture medium) of the kit-provided CellTiter-Glo® reagent (reconstituted by transferring the thawed CellTiter-Glo® buffer to the lyophilized enzyme and substrate mixture) was directly added to each well with a repetitive dispensing pipette. The contents were then mixed for 2 min at room temperature on an orbital minishaker (IKA® MS3 digital, Staufen, Germany) at 450 rpm to induce efficient cell lysis, and then further incubated for 10 min at room temperature for stabilization of the resultant luminescent signal. […]

Data set [2] relates to A-549 lung carcinoma cells. Kind of data set: CellTiter-Glo luminescent cell viability (cytotoxicity) assay on lung cancer cells. In kind it is cell-based, human. To be noted: Homo sapiens, A549, Lung cancer cells (A-549), 24 h, vs DMSO vehicle. On the procedure:
as §1, §2, §3

Data set [3] is described as follows: Visible solubility / precipitation of test compounds in cell-culture media. In kind it is physicochemical. Conditions: 50 µM; no conclusion on cytotoxicity possible. As for the experimental part: Since the majority of test compound solutions with concentrations above 50 µM precipitated in cell-culture media, we performed cytotoxicity assays for healthy and cancer cells at 50 µM.

As for `Cc1nc2cc(F)c(N3CCN(c4cccc(O)c4)CC3)cc2o1` [Compound 7h, 3-[4-(5-Fluoro-2-methyl-benzooxazol-6-yl)-piperazin-1-yl]-phenol], the melting point is 211 to 213 °C. In data set [1], the viability at 24 h, 0.1 µM worked out at 100%; the viability at 24 h, 1 µM is 102%; the viability at 24 h, 10 µM worked out at 99%. In data set [2], the viability at 0.1 µM came to 100%, the viability at 1 µM stood at 93%, the viability at 10 µM worked out at 97% and the viability at 50 µM worked out at 95%. Also, the viability at 100 µM in data set [2] was found to be 90%. In addition, the “Precipitation in cell-culture media” value in data set [3] is “precipitation problem”.

In the case of `Cc1nc2cc(F)c(N3CCN(c4ccccc4)CC3)cc2o1` [Compound 7a, 5-Fluoro-2-methyl-6-(4-phenylpiperazin-1-yl)-benzo[d]oxazole], the melting point fell in the range of 153 to 154 °C. Also, in data set [1], the viability at 24 h, 0.1 µM was 101%; the viability at 24 h, 1 µM was found to be 97%; the viability at 24 h, 10 µM stood at 94%. In addition, in data set [2], the viability at 0.1 µM amounted to 101%, the viability at 1 µM was 96%, the viability at 10 µM is 90% and the viability at 50 µM is 60%. Moreover, the “Precipitation in cell-culture media” value in data set [3] is on record as “precipitation problem”.

The molecule `COc1cccc(N2CCN(c3cc4oc(C)nc4cc3F)CC2)c1` [Compound 7i, 5-Fluoro-6-[4-(3-methoxy-phenyl)-piperazin-1-yl]-2-methyl-benzooxazole] had a melting point of 124 to 125 °C. In addition, in data set [1], the viability at 24 h, 0.1 µM came out at 100%; the viability at 24 h, 1 µM stood at 102%; the viability at 24 h, 10 µM was determined as 91%. For the same molecule, in data set [2], the viability at 0.1 µM was 105%, the viability at 1 µM was found to be 102%, the viability at 10 µM came out at 88% and the viability at 50 µM is 76%. Besides, in data set [2], the viability at 100 µM was determined as 75%. For the same molecule, the “Precipitation in cell-culture media” value in data set [3] was “precipitation problem”.

For `Cc1nc2cc(F)c(N3CCN(c4ccc(F)cc4)CC3)cc2o1` [Compound 7d, 5-Fluoro-6-[4-(4-fluoro-phenyl)-piperazin-1-yl]-2-methyl-benzooxazole], the melting point is 148 to 150 °C. For the same molecule, in data set [1], the viability at 24 h, 0.1 µM was determined as 91%; the viability at 24 h, 1 µM was found to be 94%; the viability at 24 h, 10 µM came out at 85%. In addition, in data set [2], the viability at 0.1 µM came out at 98%, the viability at 1 µM turned out to be 98%, the viability at 10 µM was 87% and the viability at 50 µM turned out to be 87%. For the same molecule, the viability at 100 µM in data set [2] is 82%. In addition, in data set [3], the “Precipitation in cell-culture media” value is “precipitation problem”.

As for `COc1cccc(N2CCN(c3cc(O)c([N+](=O)[O-])cc3F)CC2)c1` [Compound 6i, 4-Fluoro-5-[4-(3-methoxy-phenyl)-piperazin-1-yl]-2-nitro-phenol], the melting point was in the range of 148 to 149 °C. Further, in data set [1], the viability at 24 h, 0.1 µM came to 79%; the viability at 24 h, 1 µM worked out at 95%; the viability at 24 h, 10 µM amounted to 99%. In addition, in data set [2], the viability at 0.1 µM was determined as 95%, the viability at 1 µM worked out at 93%, the viability at 10 µM was found to be 96% and the viability at 50 µM was 69%. The “Precipitation in cell-culture media” value in data set [3] was “precipitation problem”.

With `Cc1nc2cc(F)c(N3CCN(c4ccccc4F)CC3)cc2o1` [Compound 7g, 5-Fluoro-6-(4-(2-fluorophenyl)-piperazin-1-yl)-2-methylbenzo[d]oxazole], the melting point was in the range of 157 to 158 °C. Also, in data set [1], the viability at 24 h, 0.1 µM worked out at 96%; the viability at 24 h, 1 µM came to 106%; the viability at 24 h, 10 µM was 87%. Further, in data set [2], the viability at 0.1 µM was found to be 96%, the viability at 1 µM is 92%, the viability at 10 µM came to 92% and the viability at 50 µM amounted to 73%. Further, in data set [2], the viability at 100 µM came out at 63%. In addition, the “Precipitation in cell-culture media” value in data set [3] is “precipitation problem”.

The viability is a read-out of living cells in per cent, often relative to untreated cells. One may read the melting point as the temperature, or range, at which the solid turns liquid.

The values are drawn from publication PMC6274350, “Design, Synthesis, and Cytotoxicity of 5-Fluoro-2-methyl-6-(4-aryl-piperazin-1-yl) Benzoxazoles” (Molecules, 2016).
